{
  "source": "patent US5770759A",
  "about": "“Prostaglandins of the F series” (priority 1987, dated 1998)",
  "key": {"blood pressure": {"test_system": "blood pressure", "assay": "Change in blood pressure in anesthetized rats (Experiment 1)", "assay_type": "in vivo, Male Wister rat", "conditions": "for Change in Blood Pressure (%): 1 mg/kg into tail vein, anesthetized rat, average of 5 data per group; for Blood Pressure: Table 2, class symbols", "procedure": "Male Wister rat (8-week old) was anesthetized by intraperitoneally administering urethane (1.25 g/kg). Polyethylene tube was inserted into femoral artery and connected with a pressure transducer to measure blood pressure.\nThe test drugs were dissolved in ethanol, diluted with Ringer's solution before use and a dose of 1 mg/kg was administered into tale vein. The maximum concentration of ethanol was 2%. As reference, ethanol-Ringer's solution without containing test drugs was used and the effect was checked in each experiment without failing. The rate of change in blood pressure (%) was determined by average of 5 data per group."}, "mouse": {"test_system": "mouse", "assay": "Acute toxicity upon oral administration (Experiment 6)", "assay_type": "in vivo, Male Slc-ddY mouse", "conditions": "mouse (5 weeks old)", "source_text": "Using Male Slc-ddY mouse (5 weeks old), acute toxicity upon oral administration (LD50) was examined."}, "pulse": {"test_system": "pulse", "set-up": "species or system Male Wister rat", "conditions": "rat, in vivo", "procedure": "Male Wister rat (8-week old) was anesthetized by intraperitoneally administering urethane (1.25 g/kg). A tachometer was operated by R wave of electrocardiogram of exterminal derivation. The effect of the tested 15-keto-PGEs on pulse is evaluated by the value calucurated from the following formula: [formula]"}},
  "data": [
    {"compound": "13,14-dihydro-15-keto-9β,11α-PGF2 methyl ester [Test Drug 3]", "values": [
      {"measurement": "Change in Blood Pressure (%)", "setting": "blood pressure", "result": "+5%"}
    ]},
    {"compound": "13,14-dihydro-15-keto-16,16-dimethyl-PGF2 α ethyl ester [Test Drug 4]", "values": [
      {"measurement": "Change in Blood Pressure (%)", "setting": "blood pressure", "result": "+7%"}
    ]},
    {"compound": "13,14-dihydro-15-keto-16-desbutyl-16-m-trifluoromethylphenoxy-PGF2 α methyl ester [Test Drug 23]", "values": [
      {"measurement": "Change in Blood Pressure (%)", "setting": "blood pressure", "result": "+5%"}
    ]},
    {"compound": "13,14-dihydro-15-keto-16R,S-fluoro-11R-dehydroxy-11R-methyl-PGF2 α methyl ester [Test Drug 8]", "values": [
      {"measurement": "Change in Blood Pressure (%)", "setting": "blood pressure", "result": "+44%"}
    ]},
    {"compound": "13,14-dihydro-15-keto-16R,S-fluoro-PGF2 α [Test Drug 5]", "values": [
      {"measurement": "Change in Blood Pressure (%)", "setting": "blood pressure", "result": "+7%"}
    ]},
    {"compound": "13,14-dihydro-15-keto-16R,S-fluoro-PGF2 α methyl ester [Test Drug 6]", "values": [
      {"measurement": "Change in Blood Pressure (%)", "setting": "blood pressure", "result": "+18%"}
    ]},
    {"compound": "13,14-dihydro-15-keto-17S-methyl-PGF2 α ethyl ester [Test Drug 13]", "values": [
      {"measurement": "Change in Blood Pressure (%)", "setting": "blood pressure", "result": "+18%"}
    ]},
    {"compound": "13,14-dihydro-15-keto-20-ethyl-11R-dehydroxy-11R-methyl-PGF2 α methyl ester [Example 15]", "values": [
      {"measurement": "Change in Blood Pressure (%)", "setting": "blood pressure", "result": "+7%"}
    ]},
    {"compound": "13,14-dihydro-15-keto-20-ethyl-16R,S-fluoro-11R-dehydroxy-11R-methyl-PGF2 α methyl ester [Test Drug 12]", "values": [
      {"measurement": "Change in Blood Pressure (%)", "setting": "blood pressure", "result": "+13%"}
    ]},
    {"compound": "13,14-dihydro-15-keto-20-ethyl-16R,S-fluoro-PGF2 α [Test Drug 10]", "values": [
      {"measurement": "Change in Blood Pressure (%)", "setting": "blood pressure", "result": "+35%"}
    ]},
    {"compound": "13,14-dihydro-15-keto-20-ethyl-16R,S-fluoro-PGF2 α methyl ester [Test Drug 11]", "values": [
      {"measurement": "Change in Blood Pressure (%)", "setting": "blood pressure", "result": "+8%"}
    ]},
    {"compound": "13,14-dihydro-15-keto-20-ethyl-PGF1 α methyl ester [Test Drug 25]", "values": [
      {"measurement": "Change in Blood Pressure (%)", "setting": "blood pressure", "result": "+32%"}
    ]},
    {"compound": "13,14-dihydro-15-keto-20-ethyl-PGF2 α [Test Drug 15]", "values": [
      {"measurement": "Change in Blood Pressure (%)", "setting": "blood pressure", "result": "+24%"}
    ]},
    {"compound": "13,14-dihydro-15-keto-20-ethyl-PGF2 α ethyl ester [Test Drug 17]", "values": [
      {"measurement": "Change in Blood Pressure (%)", "setting": "blood pressure", "result": "+20%"}
    ]},
    {"compound": "13,14-dihydro-15-keto-20-ethyl-PGF2 α isopropyl ester [Test Drug 18]", "values": [
      {"measurement": "LD50 (oral)", "setting": "mouse", "result": "> 2000", "unit": "mg/kg"},
      {"measurement": "Change in Blood Pressure (%)", "setting": "blood pressure", "result": "+16%"},
      {"measurement": "Blood Pressure", "setting": "blood pressure; rat", "result": ".uparw. (increase more than 10%)"}
    ]},
    {"compound": "13,14-dihydro-15-keto-20-ethyl-PGF2 α methyl ester [Test Drug 16]", "values": [
      {"measurement": "LD50 (oral)", "setting": "mouse", "result": "> 2000", "unit": "mg/kg"},
      {"measurement": "Change in Blood Pressure (%)", "setting": "blood pressure", "result": "+26%"},
      {"measurement": "Blood Pressure", "setting": "blood pressure; rat", "result": ".uparw. (increase more than 10%)"}
    ]},
    {"compound": "13,14-dihydro-15-keto-20-ethyl-PGF2 α n-butyl ester [Test Drug 19]", "values": [
      {"measurement": "Change in Blood Pressure (%)", "setting": "blood pressure", "result": "+8%"}
    ]},
    {"compound": "13,14-dihydro-15-keto-20-methoxy-PGF2 α methyl ester [Example 9]", "values": [
      {"measurement": "Change in Blood Pressure (%)", "setting": "blood pressure", "result": "+41%"}
    ]},
    {"compound": "13,14-dihydro-15-keto-20-methyl-PGF2 α methyl ester [Test Drug 14]", "values": [
      {"measurement": "Change in Blood Pressure (%)", "setting": "blood pressure", "result": "+10%"}
    ]},
    {"compound": "13,14-dihydro-15-keto-20-n-butyl-PGF2 α methyl ester [Test Drug 22]", "values": [
      {"measurement": "Change in Blood Pressure (%)", "setting": "blood pressure", "result": "+14%"}
    ]},
    {"compound": "13,14-dihydro-15-keto-PGF1 α ethyl ester [Test Drug 24]", "values": [
      {"measurement": "Change in Blood Pressure (%)", "setting": "blood pressure", "result": "+27%"}
    ]},
    {"compound": "13,14-dihydro-15-keto-PGF2 α methyl ester [Test Drug 1]", "values": [
      {"measurement": "Change in Blood Pressure (%)", "setting": "blood pressure", "result": "+14%"},
      {"measurement": "Blood Pressure", "setting": "blood pressure; rat", "result": ".uparw. (increase more than 10%)"}
    ]},
    {"compound": "CCCCC[C@H](O)/C=C/[C@@H]1[C@@H](C/C=C\\CCCC(=O)O)[C@@H](O)C[C@H]1O", "note": "[PGF2 α, (Z)-7-[(1R,2R,3R,5S)-3,5-dihydroxy-2-{(E)-(3S)-3-hydroxy-1-octenyl}-cyclopentyl]-5-heptenoic acid, reference compound]", "values": [
      {"measurement": "Pulse", "setting": "pulse", "result": ".dwnarw. → .uparw."},
      {"measurement": "effect on pulse (in words)", "setting": "pulse", "result": "ephemeral decrease in pulse"},
      {"measurement": "Blood Pressure", "setting": "blood pressure; rat", "result": ".dwnarw. → .uparw."},
      {"measurement": "effect on blood pressure (in words)", "setting": "blood pressure; rat", "result": "ephemeral decrease in pulse as well as blood pressure"}
    ]},
    {"compound": "CCCCCC(=O)CC[C@@H]1[C@@H](C/C=C\\CCCC(=O)OCC)[C@@H](O)C[C@H]1O", "note": "[Test Drug 2, 13,14-dihydro-15-keto-PGF2 α ethyl ester]", "values": [
      {"measurement": "Change in Blood Pressure (%)", "setting": "blood pressure", "result": "+17%"}
    ]},
    {"compound": "CCCCCCCCC(=O)CC[C@@H]1[C@@H](C/C=C\\CCCC(=O)OC)[C@@H](O)C[C@H]1O", "note": "[Test Drug 21, 13,14-dihydro-15-keto-20-n-propyl-PGF2 α methyl ester]", "values": [
      {"measurement": "Change in Blood Pressure (%)", "setting": "blood pressure", "result": "+16%"}
    ]},
    {"compound": "CCCCCC(=O)CC[C@@H]1[C@@H](C/C=C\\CCCC(=O)OC)[C@@H](O)C[C@H]1O", "note": "[compound 1]", "values": [
      {"measurement": "Change in Blood Pressure (%)", "setting": "blood pressure", "result": "+12%"}
    ]}
  ]
}
